Assay results taken from ChEMBL document CHEMBL5614392, “Discovery of novel N2-indazole derivatives as phosphodiesterase 4 inhibitors for the treatment of inflammatory bowel disease” (Eur J Med Chem, 2024).
The source made the active and inactive calls. The rule behind the calls is not given here.

What was measured:
[1] = Toxicity in ketamine/xylazine-induced anesthetic male C57BL/6J mouse model assessed as emetogenic potential by measuring reduction in anesthesia duration at 0.5 mg/kg, po preadministered with compound for 15 mins followed by ketamine/xylazine administration; type: organism-based; details: in vivo, 0.25 h
[2] = biological target: T1, 3',5'-cyclic-AMP phosphodiesterase 4D (Homo sapiens, UniProt Q08499); test: Inhibition of human recombinant PDE4D using radioactively labelled cAMP and cAMP as substrate incubated for 1 hrs by luminescence based analysis
[3] = biological target: T1, 3',5'-cyclic-AMP phosphodiesterase 4D; test: Inhibition of PDE4D7 (unknown origin) using FAM-cyclic-3'5'-AMP as substrate at 100 nM incubated for 1 hrs by fluorescence polarization assay relative to control
[4] = biological target: T1, 3',5'-cyclic-AMP phosphodiesterase 4D; test: Inhibition of PDE4D7 (unknown origin) using FAM-cyclic-3'5'-AMP as substrate incubated for 1 hrs by fluorescence polarization assay
[5] = biological target: T1, 3',5'-cyclic-AMP phosphodiesterase 4D; test: Inhibition of PDE4D7 (unknown origin) using FAM-cyclic-3'5'-AMP as substrate at 10 nM incubated for 1 hrs by fluorescence polarization assay relative to control
[6] = tested on: HT-22; test: Cytotoxicity against mouse HT-22 cells at 10 to 30 uM; type: toxicity, cell-based; details: ht-22, 30 µM, dose 10-30 µM
[7] = biological target: T1, 3',5'-cyclic-AMP phosphodiesterase 4D; test: Potency index, ratio of TPA16 IC50 to test compound IC50 for inhibition of PDE4D7 (unknown origin) using FAM-cyclic-3'5'-AMP as substrate incubated for 1 hrs by fluorescence polarization assay
[8] = biological target: Phosphodiesterase 4 (Homo sapiens, UniProt P27815+Q08499+Q07343+Q08493); test: Inhibition of PDE4 (unknown origin); type: protein assay
[9] = biological target: Phosphodiesterase 7 (Homo sapiens, UniProt Q13946+Q9NP56); test: Inhibition of PDE7 (unknown origin); type: protein assay
[10] = biological target: cGMP-inhibited 3',5'-cyclic phosphodiesterase 3B (Homo sapiens) (UniProt Q13370); test: Inhibition of PDE3B (unknown origin) using FAM-cyclic-3'5'-AMP as substrate at 10 uM incubated for 1 hrs by fluorescence polarization assay relative to control
[11] = biological target: High affinity 3',5'-cyclic-AMP phosphodiesterase 7A (Homo sapiens) (UniProt Q13946); test: Inhibition of PDE7A (unknown origin) using FAM-cyclic-3'5'-AMP as substrate at 10 uM incubated for 1 hrs by fluorescence polarization assay relative to control
[12] = biological target: High affinity cAMP-specific and IBMX-insensitive 3',5'-cyclic phosphodiesterase 8A (Homo sapiens) (UniProt O60658); test: Inhibition of PDE8A (unknown origin) using FAM-cyclic-3'5'-AMP as substrate at 10 uM incubated for 1 hrs by fluorescence polarization assay relative to control
[13] = biological target: High affinity cGMP-specific 3',5'-cyclic phosphodiesterase 9A (Homo sapiens) (UniProt O76083); test: Inhibition of PDE9A (unknown origin) using FAM-cyclic-3'5'-AMP as substrate at 10 uM incubated for 1 hrs by fluorescence polarization assay relative to control
[14] = Selectivity ratio of IC50 for PDE3B (unknown origin) to IC50 for PDE4D7 (unknown origin)
[15] = Selectivity ratio of IC50 for PDE7A (unknown origin) to IC50 for PDE4D7 (unknown origin)
[16] = Selectivity ratio of IC50 for PDE8A (unknown origin) to IC50 for PDE4D7 (unknown origin)
[17] = Selectivity ratio of IC50 for PDE9A (unknown origin) to IC50 for PDE4D7 (unknown origin)
[18] = Acute toxicity in po dosed male C57BL/6J mouse assessed as lethal dose measured after 14 days; type: organism-based; details: in vivo, time 14 day
[19] = Toxicity in ketamine/xylazine-induced anesthetic male C57BL/6J mouse model assessed as emetogenic potential by measuring reduction in anesthesia duration at 5 to 10 mg/kg, po preadministered with compound for 15 mins followed by ketamine/xylazine administration; type: organism-based; details: in vivo, 0.25 h, dose 5-10 mg/kg
[20] = Oral bioavailability in male C57BL/6J mouse; type: ADME, organism-based; details: in vivo
[21] = biological target: T1, 3',5'-cyclic-AMP phosphodiesterase 4D; test: Inhibition of PDE4D7 (unknown origin) using FAM-cyclic-3'5'-AMP as substrate at 1 uM incubated for 1 hrs by fluorescence polarization assay relative to control
[22] = Acute toxicity in male C57BL/6J mouse assessed as animal death at 0.1 g/Kg, po measured within 10 to 24 hrs; type: organism-based; details: in vivo, 100 mg/kg, time 10-24 hrs
[23] = tested on: RAW264.7; test: Antiinflammatory activity against mouse RAW264.7 cells assessed as inhibition of LPS-induced IL-6 mRNA production at 10 uM incubated for 24 hrs by SYBR green quantitative PCR analysis; type: functional, cell-based
[24] = tested on: RAW264.7; test: Antiinflammatory activity against mouse RAW264.7 cells assessed as inhibition of LPS-induced TNF-alpha mRNA production at 10 uM incubated for 24 hrs by SYBR green quantitative PCR analysis; type: functional, cell-based
[25] = tested on: RAW264.7; test: Antiinflammatory activity against mouse RAW264.7 cells assessed as inhibition of LPS-induced iNOS mRNA production at 10 uM incubated for 24 hrs by SYBR green quantitative PCR analysis; type: functional, cell-based
[26] = tested on: Mus musculus; test: Antiinflammatory activity against DSS-induced colitis C57BL/6J mouse model assessed as decrease in body weight loss at 3 mg/kg, po pretreated with DSS for 10 days followed by twice daily compound administration for 8 days starting from day 3 to day 10 and measured on day 6; type: functional, organism-based; details: time 4.0 day
[27] = tested on: Mus musculus; test: Antiinflammatory activity against DSS-induced colitis C57BL/6J mouse model assessed as decrease in body weight loss at 3 mg/kg, po pretreated with DSS for 10 days followed by twice daily compound administration for 8 days starting from day 3 to day 10 relative to control; type: functional; design: scale not given: the % may be the effect or the level left; details: time 8 day
[28] = tested on: Mus musculus; test: Antiinflammatory activity against DSS-induced colitis C57BL/6J mouse model assessed as decrease in disease activity index at 3 mg/kg, po pretreated with DSS for 10 days followed by twice daily compound administration for 8 days starting from day 3 to day 10 relative to control; type: functional, organism-based; details: time 8.0 day
[29] = tested on: Mus musculus; test: Antiinflammatory activity against DSS-induced colitis C57BL/6J mouse model assessed as increase in colon length at 3 mg/kg, po pretreated with DSS for 10 days followed by twice daily compound administration for 8 days starting from day 3 to day 10; type: functional, organism-based; details: time 8.0 day

T1 sequence (Q08499 whole entry): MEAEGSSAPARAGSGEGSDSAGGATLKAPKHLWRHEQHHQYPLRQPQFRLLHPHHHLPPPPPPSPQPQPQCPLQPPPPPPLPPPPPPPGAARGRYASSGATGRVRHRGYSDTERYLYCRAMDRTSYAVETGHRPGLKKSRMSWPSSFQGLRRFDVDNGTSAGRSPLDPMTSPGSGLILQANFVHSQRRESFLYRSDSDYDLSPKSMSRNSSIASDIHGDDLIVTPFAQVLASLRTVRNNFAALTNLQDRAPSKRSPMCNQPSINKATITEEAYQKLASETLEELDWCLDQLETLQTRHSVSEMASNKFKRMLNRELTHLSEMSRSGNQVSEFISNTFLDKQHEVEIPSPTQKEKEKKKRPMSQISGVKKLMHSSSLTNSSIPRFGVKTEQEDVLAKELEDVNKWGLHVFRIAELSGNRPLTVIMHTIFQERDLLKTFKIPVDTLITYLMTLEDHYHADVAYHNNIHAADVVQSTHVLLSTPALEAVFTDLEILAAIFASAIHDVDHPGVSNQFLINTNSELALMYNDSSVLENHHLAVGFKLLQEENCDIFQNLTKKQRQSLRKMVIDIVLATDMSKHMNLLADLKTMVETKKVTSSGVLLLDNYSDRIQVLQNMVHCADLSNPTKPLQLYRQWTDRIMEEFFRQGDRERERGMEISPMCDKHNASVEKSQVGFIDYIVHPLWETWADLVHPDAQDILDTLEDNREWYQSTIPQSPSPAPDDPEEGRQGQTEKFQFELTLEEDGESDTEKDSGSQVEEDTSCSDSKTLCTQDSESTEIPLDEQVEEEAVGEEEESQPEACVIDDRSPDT
High affinity cGMP-specific 3',5'-cyclic phosphodiesterase 9A (Homo sapiens), sequence (O76083 whole entry): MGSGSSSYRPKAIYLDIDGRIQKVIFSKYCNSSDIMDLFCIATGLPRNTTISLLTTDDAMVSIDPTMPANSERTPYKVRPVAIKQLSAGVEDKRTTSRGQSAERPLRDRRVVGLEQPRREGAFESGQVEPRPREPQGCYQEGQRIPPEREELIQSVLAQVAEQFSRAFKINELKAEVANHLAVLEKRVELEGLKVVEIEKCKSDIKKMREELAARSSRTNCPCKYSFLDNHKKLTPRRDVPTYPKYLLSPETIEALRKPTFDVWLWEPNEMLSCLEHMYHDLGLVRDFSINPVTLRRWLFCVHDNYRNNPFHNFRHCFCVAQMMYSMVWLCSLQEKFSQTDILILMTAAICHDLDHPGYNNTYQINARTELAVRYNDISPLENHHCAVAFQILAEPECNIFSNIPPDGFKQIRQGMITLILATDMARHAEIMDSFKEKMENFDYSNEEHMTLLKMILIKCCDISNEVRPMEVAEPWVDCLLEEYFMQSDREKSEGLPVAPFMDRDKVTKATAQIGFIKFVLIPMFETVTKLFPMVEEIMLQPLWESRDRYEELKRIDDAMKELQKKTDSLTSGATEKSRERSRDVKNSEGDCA
cGMP-inhibited 3',5'-cyclic phosphodiesterase 3B (Homo sapiens), sequence (Q13370 whole entry, looked up): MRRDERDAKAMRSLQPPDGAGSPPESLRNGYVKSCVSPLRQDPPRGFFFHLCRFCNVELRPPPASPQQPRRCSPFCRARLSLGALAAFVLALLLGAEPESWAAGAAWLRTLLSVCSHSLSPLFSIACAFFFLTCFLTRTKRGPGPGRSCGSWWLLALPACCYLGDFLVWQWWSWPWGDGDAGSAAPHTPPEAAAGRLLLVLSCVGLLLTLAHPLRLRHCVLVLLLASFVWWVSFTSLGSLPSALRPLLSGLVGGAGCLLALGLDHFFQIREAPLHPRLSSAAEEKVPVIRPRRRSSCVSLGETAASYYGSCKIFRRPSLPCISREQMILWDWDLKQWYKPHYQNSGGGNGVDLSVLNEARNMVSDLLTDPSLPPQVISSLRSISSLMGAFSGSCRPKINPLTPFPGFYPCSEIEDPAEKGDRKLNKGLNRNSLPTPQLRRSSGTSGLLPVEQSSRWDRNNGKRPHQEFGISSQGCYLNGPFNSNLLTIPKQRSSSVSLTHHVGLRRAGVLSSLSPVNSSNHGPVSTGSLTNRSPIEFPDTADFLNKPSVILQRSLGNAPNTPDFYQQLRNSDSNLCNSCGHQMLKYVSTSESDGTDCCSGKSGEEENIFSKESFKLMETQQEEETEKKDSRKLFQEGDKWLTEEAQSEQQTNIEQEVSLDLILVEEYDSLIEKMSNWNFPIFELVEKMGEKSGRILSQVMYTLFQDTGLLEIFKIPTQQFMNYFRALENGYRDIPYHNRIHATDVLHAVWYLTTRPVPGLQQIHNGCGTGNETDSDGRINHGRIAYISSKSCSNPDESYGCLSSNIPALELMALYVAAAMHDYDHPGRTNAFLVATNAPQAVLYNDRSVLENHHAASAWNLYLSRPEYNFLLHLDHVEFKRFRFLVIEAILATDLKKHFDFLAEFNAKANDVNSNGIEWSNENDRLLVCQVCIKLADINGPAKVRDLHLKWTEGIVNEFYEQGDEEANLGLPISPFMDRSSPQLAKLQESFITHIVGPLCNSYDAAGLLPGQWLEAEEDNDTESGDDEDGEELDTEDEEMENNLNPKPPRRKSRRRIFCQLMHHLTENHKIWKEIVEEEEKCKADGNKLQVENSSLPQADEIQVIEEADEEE
High affinity 3',5'-cyclic-AMP phosphodiesterase 7A (Homo sapiens), sequence (Q13946 whole entry): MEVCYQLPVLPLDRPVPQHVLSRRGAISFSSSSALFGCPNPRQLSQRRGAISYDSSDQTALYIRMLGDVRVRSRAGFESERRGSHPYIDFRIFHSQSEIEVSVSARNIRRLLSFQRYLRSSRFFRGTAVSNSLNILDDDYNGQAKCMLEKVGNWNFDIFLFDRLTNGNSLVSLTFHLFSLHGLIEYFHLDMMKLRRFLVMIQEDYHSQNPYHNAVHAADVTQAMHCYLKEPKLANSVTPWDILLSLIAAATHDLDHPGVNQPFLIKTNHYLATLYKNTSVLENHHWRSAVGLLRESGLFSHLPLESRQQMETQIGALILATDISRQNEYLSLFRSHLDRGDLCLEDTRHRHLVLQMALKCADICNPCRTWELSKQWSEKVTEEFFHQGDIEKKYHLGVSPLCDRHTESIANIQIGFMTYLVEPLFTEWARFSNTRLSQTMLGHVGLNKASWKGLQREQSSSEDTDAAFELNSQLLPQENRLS
High affinity cAMP-specific and IBMX-insensitive 3',5'-cyclic phosphodiesterase 8A (Homo sapiens), sequence (O60658 whole entry): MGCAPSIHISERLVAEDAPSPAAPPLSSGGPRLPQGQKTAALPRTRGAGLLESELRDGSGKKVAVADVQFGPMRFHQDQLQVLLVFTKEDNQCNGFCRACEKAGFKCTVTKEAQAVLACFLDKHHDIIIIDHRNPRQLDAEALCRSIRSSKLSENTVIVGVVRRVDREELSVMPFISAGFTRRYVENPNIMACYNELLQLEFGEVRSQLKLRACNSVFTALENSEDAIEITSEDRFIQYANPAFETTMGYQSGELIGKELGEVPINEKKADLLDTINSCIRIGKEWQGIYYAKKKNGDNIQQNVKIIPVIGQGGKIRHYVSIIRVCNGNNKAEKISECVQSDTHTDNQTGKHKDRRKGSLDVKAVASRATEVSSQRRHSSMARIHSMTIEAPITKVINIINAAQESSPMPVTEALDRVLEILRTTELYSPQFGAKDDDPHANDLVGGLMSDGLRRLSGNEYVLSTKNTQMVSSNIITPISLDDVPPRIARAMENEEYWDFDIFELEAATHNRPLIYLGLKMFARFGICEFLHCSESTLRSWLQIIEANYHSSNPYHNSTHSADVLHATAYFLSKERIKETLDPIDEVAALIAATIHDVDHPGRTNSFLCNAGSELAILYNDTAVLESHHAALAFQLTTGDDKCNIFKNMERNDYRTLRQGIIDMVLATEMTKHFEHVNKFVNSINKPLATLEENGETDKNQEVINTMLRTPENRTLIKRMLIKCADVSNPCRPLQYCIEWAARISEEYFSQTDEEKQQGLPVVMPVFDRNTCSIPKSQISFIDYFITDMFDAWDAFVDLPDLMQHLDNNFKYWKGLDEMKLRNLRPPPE

Structure (SMILES) | inhibition [3] [%] | inhibition [5] [%] | IC50 [4] [nM] | also measured
COc1ccc(C2CNC(=O)C2)cc1OC1CCCC1 (stereo not given) [ROLIPRAM] | – | – | – | Activity [1]: Toxic
COc1ccc(-c2cccc(C(C)=O)c2)n2nc(C3(C(=O)NC4CCCC4)CC3)nc12 | – | – | – | IC50 [2]: < 500 nM
COc1ccc(-c2ccc(OC)c3nn(C4CC4)cc23)cc1OC | 4 | 3 | – | inhibition [4]: inactive
COc1cc(-c2ccc(OC(F)F)c3nn(C4CC4)cc23)cc2c1OCO2 | 24 | – | – | –
FC(F)Oc1ccc(-c2ccnc(Cl)c2)c2cn(C3CC3)nc12 | 79 | 28 | 22.5 | –
COc1ccc(-c2cccc(C#N)c2)c2cn(C3CC3)nc12 | 6 | 5 | – | –
CC(=O)c1cccc(-c2ccc(OC(F)F)c3nn(C4CC4)cc23)c1 | 88 | 38 | 13.4 | Activity [6]: Toxic
CC(C)(O)C1CN(c2ccc(OC(F)F)c3nn(C4CC4)cc23)C1 | 4 | 4 | – | –
COc1cc(-c2ccc(OC)c3nn(C4CC4)cc23)cc(OC)c1OC | 73 | 34 | 27.6 | Ratio IC50 [7]: > 20
COc1ccc(-c2cc(C#N)cc(Cc3ccccc3)c2)c2cn(C3CC3)nc12 | 3 | 3 | – | –
OCCN(CCO)c1nc(N2CCCCC2)c2nc(N(CCO)CCO)nc(N3CCCCC3)c2n1 [DIPYRIDAMOLE] | – | – | – | IC50 [8]: 2800 nM; IC50 [9]: 600 nM
COc1ccc(-c2cccc(CN)c2)c2cn(C3CC3)nc12 | 71 | 32 | 33.1 | –
COc1ccc(-c2cccc(C(N)=O)c2)c2cn(C3CC3)nc12 | 68 | 26 | 38.2 | –
COc1ccc(-c2ccncc2)c2cn(C3CC3)nc12 | 89 | 46 | 10.1 | inhibition [10]: 11%; inhibition [11]: 13%; inhibition [12]: 10%; inhibition [13]: 7%; Activity [6]: Non-Toxic; Ratio IC50 [14]: > 990; Ratio IC50 [15]: > 990; Ratio IC50 [16]: > 990; Ratio IC50 [17]: > 990; LD50 at 336 h [18]: 400 mg/kg; Activity [19]: Non-Toxic; bioavailability [20]: 3.4%
Fc1cc(-c2ccc(OC(F)F)c3nn(C4CC4)cc23)ccn1 | 38 | 12 | – | –
FC(F)Oc1ccc(-c2ccncc2Cl)c2cn(C3CC3)nc12 | 14 | 6 | – | –
N#Cc1cccnc1Oc1cc(-c2ccc(OC(F)F)c3nn(C4CC4)cc23)cc2c1OCO2 | 2 | – | – | –
FC(F)Oc1ccc(N2CCOCC2)c2cn(C3CC3)nc12 | 12 | 4 | – | –

Structure (SMILES) | inhibition [3] [%] | inhibition [5] [%] | IC50 [4] [nM] | also measured
COc1ccc(-c2cccc(C#N)c2)c2cn(C3(C(=O)NCC(C)C)CC3)nc12 | 18 | – | 380 | inhibition [21]: 81%
NC(=O)c1cccnc1Oc1cc(-c2ccc(OC(F)F)c3nn(C4CC4)cc23)cc2c1OCO2 | 22 | – | – | –
CNc1cc(-c2ccc(OC(F)F)c3nn(C4CC4)cc23)ccn1 | 18 | 4 | – | –
O=C(NCc1ccccc1)c1cc(-c2ccc(OC(F)F)c3nn(C4CC4)cc23)ccn1 | 16 | 8 | – | –
COc1ccc(-c2cccc(C(C)=O)c2)c2cn(C3CC3)nc12 | 68 | 37 | 22.9 | –
COc1ccc(-c2cccc(C(C)=O)c2)c2cn(C3(C(=O)NC4CCCC4)CC3)nc12 | 8 | – | > 1000 | inhibition [21]: 4%
COc1ccc(N2CC(Oc3ccccc3)C2)c2cn(C3CC3)nc12 | 9 | 7 | – | –
CCOc1cc([C@@H](CS(C)(=O)=O)N2C(=O)c3cccc(NC(C)=O)c3C2=O)ccc1OC | – | – | – | Activity [1]: Toxic
FC(F)Oc1ccc(-c2ccncc2)c2cn(C3CC3)nc12 | 77 | 34 | 19.9 | inhibition [10]: 8%; inhibition [11]: 13%; inhibition [12]: 5%; inhibition [13]: 4%; Activity [6]: Non-Toxic; Ratio IC50 [14]: > 502; Ratio IC50 [15]: > 502; Ratio IC50 [16]: > 502; Ratio IC50 [17]: > 502; Activity [22]: Toxic
COc1cc(OC)cc(-c2ccc(OC(F)F)c3nn(C4CC4)cc23)c1 | 4 | – | – | –
COc1cc(-c2ccc(OC(F)F)c3nn(C4CC4)cc23)ccn1 | 21 | 7 | – | –
CC(C)CNC(=O)c1cc(-c2ccc(OC(F)F)c3nn(C4CC4)cc23)ccn1 | 14 | 5 | – | –
FC(F)Oc1ccc(-c2ccnc(N3CCOCC3)c2)c2cn(C3CC3)nc12 | 11 | 3 | – | –
COc1ccc(-n2ccc3cc(C#N)ccc32)c2cn(C3CC3)nc12 | 16 | 18 | – | –
O=C(Nc1c(Cl)cncc1Cl)c1ccc(OC(F)F)c(OCC2CC2)c1 [ROFLUMILAST] | – | – | – | Activity [1]: Toxic; Activity [23]: Active; Activity [24]: Active; Activity [25]: Active; Activity [26]: Active; Activity [27]: 7.3%; Activity [28]: Active; Activity [29]: Active
COc1ccc(-c2cccc(C(C)=O)c2)c2cn(C3(C(=O)NCC(C)C)CC3)nc12 | 4 | – | > 1000 | inhibition [21]: 7%
Fc1cnccc1-c1ccc(OC(F)F)c2nn(C3CC3)cc12 | 15 | 3 | – | –
